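Five compound concentrations were applied to cells in 96-well plates for 48 hours; endpoints were derived by simple linear interpolation of the resulting dose-response curve. Abbreviation: GI50, concentration required for 50% inhibition of growth. TGI is the concentration that stops growth completely.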
How the values were obtained:
Assay in all cases: NCI-60 cell line screen, 48 h
786-0 renal = system: 786-0 renal
ACHN renal = system: ACHN renal
BT-549 breast = system: BT-549 breast
SF-295 CNS = system: SF-295 CNS
SK-MEL-5 melanoma = system: SK-MEL-5 melanoma
SK-OV-3 ovarian = system: SK-OV-3 ovarian
SR leukemia = system: SR leukemia
UACC-257 melanoma = system: UACC-257 melanoma
UACC-62 melanoma = system: UACC-62 melanoma
T-47D breast = system: T-47D breast

Compound | TGI (786-0 renal) [µM] | TGI (ACHN renal) [µM] | TGI (BT-549 breast) [µM] | TGI (SF-295 CNS) [µM] | TGI (SK-MEL-5 melanoma) [µM] | TGI (SK-OV-3 ovarian) [µM] | TGI (SR leukemia) [µM] | TGI (UACC-257 melanoma) [µM] | TGI (UACC-62 melanoma) [µM] | TGI (T-47D breast) [µM] | GI50 (ACHN renal) [nM] | GI50 (BT-549 breast) [nM] | GI50 (SF-295 CNS) [nM] | GI50 (SK-MEL-5 melanoma) [nM] | GI50 (SK-OV-3 ovarian) [nM] | GI50 (SR leukemia) [nM] | GI50 (T-47D breast) [nM] | GI50 (UACC-257 melanoma) [µM] | GI50 (UACC-62 melanoma) [nM]
CN1C(=O)N(C)C(O)C(Cl)(Br)C1=O (stereo unspecified) | > 100 | > 100 | > 100 | > 100 | > 100 | > 100 | > 100 | > 100 | > 100 | – | – | – | – | – | – | – | – | – | –
Cn1c(=O)c(-c2ccccc2)c(O)c2ccccc21 | > 100 | > 100 | > 100 | > 100 | > 100 | – | > 100 | > 100 | – | – | – | – | – | – | – | – | – | – | –
CSC(SC)=C(C(=O)O)P(=O)(O)O | > 100 | > 100 | – | > 100 | > 100 | > 100 | > 100 | > 100 | > 100 | > 100 | – | – | – | – | – | – | – | – | –
CS(=O)(=O)CSCSSCS(C)(=O)=O | 41.3 | > 100 | – | 55.7 | > 100 | > 100 | > 91.8 | > 100 | 47 | – | – | – | – | – | – | – | – | – | –
O=C1N=C2SC(=S)NC(=S)N2NC12c1ccccc1-c1ccccc12 | > 10 | – | > 10 | – | > 10 | > 10 | > 10 | > 10 | > 10 | > 10 | – | – | – | – | – | – | – | – | –
COC(=O)[C@@H]1CCCCC[C@H]2C(CO)=C(C)C(=O)C12 (stereo partly specified) | > 100 | > 100 | – | > 100 | > 100 | > 100 | > 100 | > 100 | > 100 | – | – | – | – | – | – | – | – | – | –
CSc1nc(NC(C)C)c2c(n1)Sc1nc3ccccc3n1N=C2 | 16.7 | 20.9 | > 100 | 24.1 | 23.9 | 28.2 | > 100 | > 100 | 23.6 | – | – | – | – | – | – | – | – | – | –
CC(C)(C)OC(=O)NC(Cc1ccccc1)NC(=O)NC(=O)OCc1ccccc1 (stereo unspecified) | > 100 | > 100 | > 100 | > 100 | > 100 | > 100 | > 100 | > 100 | > 100 | – | – | – | – | – | – | – | – | – | –
COc1ccccc1CN=C1Nc2ccncc2S(=O)(=O)N1c1ccccc1 | > 100 | > 100 | > 100 | > 100 | > 100 | > 100 | > 100 | > 100 | > 100 | – | – | – | – | – | – | – | – | – | –
N#C/C(=C/n1c(=S)[nH]c2ccc([N+](=O)[O-])cc21)C(N)=O | > 100 | > 100 | – | > 100 | > 100 | > 100 | > 100 | > 100 | > 100 | – | – | – | – | – | – | – | – | – | –
Cc1[nH]c(=O)nc(NCCNCCO)c1C(=O)Nc1cccc2cc3ccccc3cc12 | > 100 | > 100 | > 100 | > 100 | > 100 | – | > 100 | > 100 | > 100 | > 100 | – | – | – | – | – | – | – | – | –
CC1=NN(c2nc(N)nc(-c3sccc3N)n2)C(C)(C)C1 | > 100 | > 100 | > 100 | > 100 | > 100 | > 100 | – | > 100 | > 100 | – | – | – | – | – | – | – | – | – | –
O=C1C=CC(=O)N1n1c(-c2ccccc2)n[nH]c1=O | > 100 | – | > 100 | > 100 | > 100 | > 100 | > 100 | > 100 | > 100 | > 100 | – | – | – | – | – | – | – | – | –
O=C(OCCN=c1c2ccccc2ccc2ccccc12)c1ccccc1 | > 100 | > 100 | > 100 | > 100 | > 100 | > 100 | > 100 | > 100 | > 100 | – | – | – | – | – | – | – | – | – | –
CC(C)c1cccc(C(C)C)c1NC(=O)/C(CC(=O)CC(c1ccccc1)c1c(O)c2ccccc2oc1=O)=N/O (stereo unspecified) | > 100 | > 100 | > 100 | > 100 | > 100 | > 100 | – | > 100 | > 100 | > 100 | – | – | – | – | – | – | – | – | –
COC(=O)C1=C(C(=O)OC)SC(=CC#CC=C2SC(C(=O)OC)=C(C(=O)OC)S2)S1 | 18.2 | 34.6 | – | 11.8 | > 86.5 | 31.5 | > 100 | > 100 | 29.1 | – | – | – | – | – | – | – | – | – | –
O=c1[nH]c2nc3ccccc3nc2[nH]c1=O | > 100 | > 100 | – | > 100 | > 100 | > 100 | > 100 | > 100 | > 100 | > 100 | – | – | – | – | – | – | – | – | –
O=C(N/N=C(/CCN1CCCC1)CC(c1ccccc1)c1c(O)c2ccccc2oc1=O)c1ccncc1 (stereo unspecified) | > 100 | > 100 | – | > 100 | > 100 | > 100 | 48.6 | > 100 | > 100 | – | – | – | – | – | – | – | – | – | –
O=c1c(Cc2ccc(Cl)cc2)nnc2sc(-c3ccc(-c4ccc(F)c(Cl)c4)o3)nn12 | > 100 | > 100 | > 100 | > 100 | > 100 | > 100 | – | > 100 | > 100 | > 100 | – | – | – | – | – | – | – | – | –
C=C1OC(c2ccccc2NC)=NC12CCCCC2 | > 100 | > 100 | > 100 | > 100 | > 100 | > 100 | – | > 100 | > 100 | > 100 | – | – | – | – | – | – | – | – | –
CN(C)/N=C(/c1nc2ccc(Cl)cc2[nH]c1=O)C(O)c1ccc(C(O)/C(=N\N(C)C)c2nc3ccc(Cl)cc3[nH]c2=O)cc1 (stereo unspecified) | > 100 | > 100 | – | > 100 | > 100 | > 100 | > 100 | > 100 | > 100 | – | – | – | – | – | – | – | – | – | –
COc1cc(-c2n/c(=C\c3c(O)[nH]c4ccc(Cl)cc34)cc3c2=Nc2ccccc2-3)ccc1F | – | 3.76 | 3.84 | 5.55 | 10.8 | 5.3 | 4.76 | 10.9 | 3.2 | 3.5 | 1850 | 2060 | 2340 | 2840 | 2290 | 1080 | 1500 | 3.43 | 1650
Cc1cc(S(=O)(=O)/N=C(/C(=C=[N-])C#N)[n+]2ccc(N(C)C)cc2)c(SCC(=O)O)cc1Cl | > 100 | > 100 | > 100 | > 100 | > 100 | > 100 | – | > 100 | > 100 | > 100 | – | – | – | – | – | – | – | – | –
